In PMC9820167, “Design and Synthesis of Conformationally Flexible Scaffold as Bitopic Ligands for Potent D3-Selective Antagonists” (International Journal of Molecular Sciences, 2022):

Legend:
Assay in all cases: PDSP binding screen
[1] = target: T1, Serotonin 5-HT3 (Homo sapiens, UniProt P46098)
T1 sequence (P46098 24-478): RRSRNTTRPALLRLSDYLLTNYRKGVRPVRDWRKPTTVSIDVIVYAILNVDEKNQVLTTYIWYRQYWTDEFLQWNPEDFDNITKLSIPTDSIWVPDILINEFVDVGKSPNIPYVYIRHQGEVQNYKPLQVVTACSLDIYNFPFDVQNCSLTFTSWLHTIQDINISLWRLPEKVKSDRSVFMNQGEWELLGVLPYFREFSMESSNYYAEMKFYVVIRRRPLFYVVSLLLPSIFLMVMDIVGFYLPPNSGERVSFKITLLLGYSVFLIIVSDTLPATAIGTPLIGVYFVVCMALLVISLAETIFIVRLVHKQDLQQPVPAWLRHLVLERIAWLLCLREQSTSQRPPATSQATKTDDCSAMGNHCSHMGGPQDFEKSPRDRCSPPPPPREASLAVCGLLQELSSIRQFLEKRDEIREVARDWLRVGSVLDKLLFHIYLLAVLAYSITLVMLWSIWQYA

[2] = target: Serotonin 5-HT6 (Homo sapiens, UniProt P50406)
Chain of Serotonin 5-HT6 (P50406 whole entry): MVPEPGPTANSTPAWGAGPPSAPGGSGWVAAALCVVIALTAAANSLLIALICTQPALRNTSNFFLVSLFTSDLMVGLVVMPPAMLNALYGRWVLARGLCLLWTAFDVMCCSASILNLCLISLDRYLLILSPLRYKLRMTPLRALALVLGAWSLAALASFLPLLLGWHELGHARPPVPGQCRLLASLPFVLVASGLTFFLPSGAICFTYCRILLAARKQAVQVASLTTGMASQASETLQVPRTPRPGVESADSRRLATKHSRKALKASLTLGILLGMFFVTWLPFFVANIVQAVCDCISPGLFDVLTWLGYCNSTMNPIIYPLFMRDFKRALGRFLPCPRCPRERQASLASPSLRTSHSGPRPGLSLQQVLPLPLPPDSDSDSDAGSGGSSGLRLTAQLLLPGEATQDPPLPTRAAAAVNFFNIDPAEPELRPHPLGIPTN

[3] = target: T2, Adrenergic alpha1D (Homo sapiens, UniProt P25100); conditions: for inhibition at 10 µM: read-out: Ki (nM) or % inhibition at 10 µM: alpha1D
T2 sequence (P25100 1-572): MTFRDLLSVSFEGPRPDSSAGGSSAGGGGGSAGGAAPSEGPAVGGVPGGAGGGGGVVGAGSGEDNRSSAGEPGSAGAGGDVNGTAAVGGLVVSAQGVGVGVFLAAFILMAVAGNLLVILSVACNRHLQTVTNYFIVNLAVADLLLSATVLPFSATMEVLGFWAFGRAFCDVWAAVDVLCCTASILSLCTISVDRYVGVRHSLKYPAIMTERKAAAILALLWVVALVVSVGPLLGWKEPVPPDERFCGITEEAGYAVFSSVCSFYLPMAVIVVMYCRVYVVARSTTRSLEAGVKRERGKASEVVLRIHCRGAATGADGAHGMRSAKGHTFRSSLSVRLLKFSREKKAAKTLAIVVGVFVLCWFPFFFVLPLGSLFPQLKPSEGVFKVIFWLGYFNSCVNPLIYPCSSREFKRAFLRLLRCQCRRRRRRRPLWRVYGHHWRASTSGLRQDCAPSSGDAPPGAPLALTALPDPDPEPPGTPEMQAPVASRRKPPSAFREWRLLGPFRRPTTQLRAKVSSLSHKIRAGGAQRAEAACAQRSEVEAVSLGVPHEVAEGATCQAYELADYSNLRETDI

[4] = target: Adrenergic beta1 (Homo sapiens, UniProt P08588); conditions: for inhibition at 10 µM: read-out: Ki (nM) or % inhibition at 10 µM: beta1
Chain of Adrenergic beta1 (P08588 whole entry): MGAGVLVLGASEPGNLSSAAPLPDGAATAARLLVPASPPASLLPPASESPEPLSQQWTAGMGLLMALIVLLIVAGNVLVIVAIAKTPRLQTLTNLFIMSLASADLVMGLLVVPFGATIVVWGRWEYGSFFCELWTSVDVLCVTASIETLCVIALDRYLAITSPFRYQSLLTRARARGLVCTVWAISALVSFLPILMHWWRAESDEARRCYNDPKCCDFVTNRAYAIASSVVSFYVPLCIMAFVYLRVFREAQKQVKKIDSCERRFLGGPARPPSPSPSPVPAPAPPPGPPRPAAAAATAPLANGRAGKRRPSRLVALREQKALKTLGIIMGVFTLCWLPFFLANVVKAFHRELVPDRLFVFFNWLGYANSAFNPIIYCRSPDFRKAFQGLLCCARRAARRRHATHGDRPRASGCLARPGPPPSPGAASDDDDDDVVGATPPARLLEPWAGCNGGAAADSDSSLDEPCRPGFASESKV

[5] = target: Adrenergic beta3 (Homo sapiens, UniProt P13945); conditions: for inhibition at 10 µM: read-out: Ki (nM) or % inhibition at 10 µM: beta3
Chain of Adrenergic beta3 (P13945 whole entry): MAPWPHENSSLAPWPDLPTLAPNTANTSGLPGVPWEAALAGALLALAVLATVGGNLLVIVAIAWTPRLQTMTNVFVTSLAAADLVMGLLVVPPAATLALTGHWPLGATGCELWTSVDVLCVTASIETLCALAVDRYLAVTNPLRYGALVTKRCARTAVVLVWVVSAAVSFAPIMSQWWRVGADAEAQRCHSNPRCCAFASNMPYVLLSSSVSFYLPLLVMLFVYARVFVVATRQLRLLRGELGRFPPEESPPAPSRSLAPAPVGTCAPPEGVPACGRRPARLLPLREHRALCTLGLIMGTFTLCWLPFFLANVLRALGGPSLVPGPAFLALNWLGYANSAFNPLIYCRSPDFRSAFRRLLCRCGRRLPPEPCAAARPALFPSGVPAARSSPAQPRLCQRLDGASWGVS

[6] = target: Dopamine D2 (Homo sapiens, UniProt P14416)
Chain of Dopamine D2 (P14416 whole entry): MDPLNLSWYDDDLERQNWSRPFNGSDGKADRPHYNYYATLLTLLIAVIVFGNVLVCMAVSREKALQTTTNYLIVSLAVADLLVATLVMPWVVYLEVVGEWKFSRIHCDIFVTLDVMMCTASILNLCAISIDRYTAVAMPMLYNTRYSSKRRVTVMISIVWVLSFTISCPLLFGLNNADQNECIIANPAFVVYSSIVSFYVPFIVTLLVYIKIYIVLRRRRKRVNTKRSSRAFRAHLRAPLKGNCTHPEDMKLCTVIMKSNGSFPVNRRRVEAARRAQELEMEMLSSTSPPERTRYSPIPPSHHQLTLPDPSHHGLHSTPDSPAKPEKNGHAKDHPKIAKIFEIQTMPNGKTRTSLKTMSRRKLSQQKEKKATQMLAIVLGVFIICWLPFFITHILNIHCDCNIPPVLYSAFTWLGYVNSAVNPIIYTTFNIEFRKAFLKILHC

[7] = target: Dopamine D3 (Homo sapiens, UniProt P35462)
Chain of Dopamine D3 (P35462 whole entry): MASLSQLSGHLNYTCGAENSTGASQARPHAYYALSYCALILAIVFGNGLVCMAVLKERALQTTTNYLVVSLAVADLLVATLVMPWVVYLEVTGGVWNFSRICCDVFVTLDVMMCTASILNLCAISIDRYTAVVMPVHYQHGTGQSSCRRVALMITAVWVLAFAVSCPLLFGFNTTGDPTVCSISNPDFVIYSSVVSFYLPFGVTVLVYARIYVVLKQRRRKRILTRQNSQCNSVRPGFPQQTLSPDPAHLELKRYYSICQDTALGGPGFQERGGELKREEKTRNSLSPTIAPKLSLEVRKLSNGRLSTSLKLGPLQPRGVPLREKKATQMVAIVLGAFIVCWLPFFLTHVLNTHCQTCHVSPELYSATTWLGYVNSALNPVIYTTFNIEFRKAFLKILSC

[8] = target: T3, Dopamine D4 (Homo sapiens, UniProt P21917)
T3 sequence (P21917 1-419): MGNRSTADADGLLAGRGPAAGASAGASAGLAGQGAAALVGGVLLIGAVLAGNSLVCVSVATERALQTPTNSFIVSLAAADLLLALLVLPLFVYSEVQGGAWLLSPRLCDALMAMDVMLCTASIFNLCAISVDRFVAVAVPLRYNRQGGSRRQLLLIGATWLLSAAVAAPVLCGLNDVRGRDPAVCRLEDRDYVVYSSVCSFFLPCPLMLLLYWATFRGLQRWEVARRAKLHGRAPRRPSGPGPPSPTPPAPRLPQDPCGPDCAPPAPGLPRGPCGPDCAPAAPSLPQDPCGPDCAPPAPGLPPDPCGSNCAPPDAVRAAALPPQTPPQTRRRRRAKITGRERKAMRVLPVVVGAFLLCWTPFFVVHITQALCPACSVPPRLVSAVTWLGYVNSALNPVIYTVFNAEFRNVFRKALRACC

[9] = target: T4, Muscarinic M1 (Homo sapiens, UniProt P11229); conditions: for inhibition at 10 µM: read-out: Ki (nM) or % inhibition at 10 µM: M1
T4 sequence (P11229 1-460): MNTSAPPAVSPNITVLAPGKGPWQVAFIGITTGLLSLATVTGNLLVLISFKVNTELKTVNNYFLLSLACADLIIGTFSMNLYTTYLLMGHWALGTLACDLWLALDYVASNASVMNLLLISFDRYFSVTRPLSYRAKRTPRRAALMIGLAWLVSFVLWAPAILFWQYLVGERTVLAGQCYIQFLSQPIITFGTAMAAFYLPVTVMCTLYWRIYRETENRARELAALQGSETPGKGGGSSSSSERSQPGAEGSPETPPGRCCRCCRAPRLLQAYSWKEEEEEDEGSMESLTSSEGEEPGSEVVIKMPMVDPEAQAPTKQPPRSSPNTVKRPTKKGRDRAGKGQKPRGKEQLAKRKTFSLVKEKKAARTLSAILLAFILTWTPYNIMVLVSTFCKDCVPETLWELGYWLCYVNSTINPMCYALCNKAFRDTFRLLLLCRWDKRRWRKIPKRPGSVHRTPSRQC

[10] = target: Dopamine active transporter (DAT) (Homo sapiens, UniProt Q01959)
Chain of Dopamine active transporter (DAT) (Q01959 whole entry, species assumed): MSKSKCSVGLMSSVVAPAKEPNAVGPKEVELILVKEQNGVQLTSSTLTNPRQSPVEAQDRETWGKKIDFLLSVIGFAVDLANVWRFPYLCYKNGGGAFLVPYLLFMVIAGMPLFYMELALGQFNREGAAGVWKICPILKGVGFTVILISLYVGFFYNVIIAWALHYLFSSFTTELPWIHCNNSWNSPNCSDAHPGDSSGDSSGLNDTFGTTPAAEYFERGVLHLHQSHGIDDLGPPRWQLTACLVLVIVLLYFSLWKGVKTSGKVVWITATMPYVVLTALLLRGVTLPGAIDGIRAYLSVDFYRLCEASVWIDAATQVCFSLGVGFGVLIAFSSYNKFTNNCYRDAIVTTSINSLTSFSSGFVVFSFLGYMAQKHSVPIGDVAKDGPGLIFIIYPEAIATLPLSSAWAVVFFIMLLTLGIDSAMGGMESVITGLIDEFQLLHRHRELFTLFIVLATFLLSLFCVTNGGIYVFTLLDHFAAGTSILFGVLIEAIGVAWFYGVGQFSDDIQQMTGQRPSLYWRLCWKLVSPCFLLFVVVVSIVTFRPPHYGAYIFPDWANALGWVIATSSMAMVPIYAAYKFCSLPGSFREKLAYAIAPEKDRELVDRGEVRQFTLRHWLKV

[11] = target: Norepinephrine transporter (NET) (Homo sapiens, UniProt P23975); conditions: for inhibition at 10 µM: read-out: Ki (nM) or % inhibition at 10 µM: Norepinephrine transporter (NET)
Chain of Norepinephrine transporter (NET) (P23975 whole entry): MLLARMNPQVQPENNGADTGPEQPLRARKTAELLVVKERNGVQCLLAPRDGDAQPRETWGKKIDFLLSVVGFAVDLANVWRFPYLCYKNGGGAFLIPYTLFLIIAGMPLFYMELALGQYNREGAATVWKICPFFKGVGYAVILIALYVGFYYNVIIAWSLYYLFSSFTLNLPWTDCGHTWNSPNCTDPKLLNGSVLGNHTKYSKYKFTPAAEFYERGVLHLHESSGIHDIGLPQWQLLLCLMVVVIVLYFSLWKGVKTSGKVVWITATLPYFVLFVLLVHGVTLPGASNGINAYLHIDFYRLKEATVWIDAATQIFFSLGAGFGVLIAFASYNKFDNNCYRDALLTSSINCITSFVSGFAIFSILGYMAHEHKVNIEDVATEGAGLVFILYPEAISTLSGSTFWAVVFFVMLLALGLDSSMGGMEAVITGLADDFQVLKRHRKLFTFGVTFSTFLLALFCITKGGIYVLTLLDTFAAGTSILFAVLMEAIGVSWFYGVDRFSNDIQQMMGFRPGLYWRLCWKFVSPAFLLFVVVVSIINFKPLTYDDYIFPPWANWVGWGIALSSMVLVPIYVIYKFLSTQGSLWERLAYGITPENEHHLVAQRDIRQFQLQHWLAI

Compound	Ki [1] [nM]	Ki [2] [nM]	Ki [3] [nM]	Ki [4] [nM]	Ki [5] [nM]	Ki [6] [nM]	Ki [7] [nM]	Ki [8] [nM]	inhibition at 10 µM [9] [%]	Ki [10] [nM]	Ki [11] [nM]	Ki [9] [nM]	inhibition at 10 µM [3] [%]	inhibition at 10 µM [4] [%]	inhibition at 10 µM [5] [%]	inhibition at 10 µM [11] [%]	inhibition at 10 µM ([6]; read-out: Ki (nM) or % inhibition at 10 µM: D2) [%]	inhibition at 10 µM ([8]; read-out: Ki (nM) or % inhibition at 10 µM: D4) [%]	inhibition at 10 µM ([10]; read-out: Ki (nM) or % inhibition at 10 µM: Dopamine active transporter (DAT)) [%]
CCCN(CCCNC(=O)c1ccc(-c2cccs2)cc1)CCNC(=O)c1cc(Br)cc(OC)c1OC [20a, 5-Bromo-2,3-dimethoxy-N-(2-(propyl(3-(4-(thiophen-2-yl)benzamido)propyl)amino)ethyl)benzamide]	103	258	2420	3710	1390	185	1.32	938	< 50	511	3510	–	–	–	–	–	–	–	–
CCN(CCCNC(=O)c1ccc(-c2ccsc2)cc1)CCNC(=O)c1cc(Br)cc(OC)c1OC [21g, 5-Bromo-N-(2-(ethyl(3-(4-(thiophen-3-yl)benzamido)propyl)amino)ethyl)-2,3-dimethoxybenzamide]	195	363	1410	1890	2960	170	0.61	582	–	100	1940	3430	–	–	–	–	–	–	–
CCN(CCCNC(=O)c1ccsc1)CCNC(=O)c1cc(Br)cc(OC)c1OC [21i, N-(3-((2-(5-Bromo-2,3-dimethoxybenzamido)ethyl)(ethyl)amino)propyl)thiophen-e-3-carboxamide]	29	2160	–	–	> 10000	40	0.28	514	< 50	289	3200	–	< 50	< 50	–	–	–	–	–
CCN(CCCNC(=O)c1ccc(-c2cccs2)cc1)CCNC(=O)c1cc(Br)cc(OC)c1OC [9a, 5-Bromo-N-(2-(ethyl(3-(4-(thiophen-2-yl)benzamido)propyl)amino)ethyl)-2,3-dimethoxybenzamide]	195	287	2560	5900	1500	232	0.83	579	–	87	772	2350	–	–	–	–	–	–	–
CCN(CCCNC(=O)c1ccc(-c2ccncc2)cc1)CCNC(=O)c1cc(Br)cc(OC)c1OC [21c, 5-Bromo-N-(2-(ethyl(3-(4-(pyridin-4-yl)benzamido)propyl)amino)ethyl)-2,3-dimethoxybenzamide]	58	1860	–	–	–	74	0.36	2180	–	57	–	3390	< 50	< 50	< 50	< 50	–	–	–
CCN(CCCNC(=O)c1cc2ccccc2[nH]1)CCNC(=O)c1cc(Br)cc(OC)c1OC [21d, N-(3-((2-(5-Bromo-2,3-dimethoxybenzamido)ethyl)(ethyl)amino)propyl)-1H-indole-2-carboxamide]	92	1630	7310	–	–	89	0.25	239	–	90	842	> 10000	–	< 50	< 50	–	–	–	–
CCN(CCCNC(=O)c1cc2ccccc2n1C)CCNC(=O)c1cc(Br)cc(OC)c1OC [21j, N-(3-((2-(5-Bromo-2,3-dimethoxybenzamido)ethyl)(ethyl)amino)propyl)-1-methyl-1H-indole-2-carboxamide]	246	1310	–	–	4360	76	0.34	878	< 50	390	1100	–	< 50	< 50	–	–	–	–	–
CCN(CCCNC(=O)c1ccc2ccccc2c1)CCNC(=O)c1cc(Br)cc(OC)c1OC [21a, N-(3-((2-(5-Bromo-2,3-dimethoxybenzamido)ethyl)(ethyl)amino)propyl)-2-naphthamide]	53	730	–	–	4530	216	0.19	377	< 50	89	391	–	< 50	< 50	–	–	–	–	–
CCN(CCCNC(=O)c1cn2ccccc2n1)CCNC(=O)c1cc(Br)cc(OC)c1OC [21e, N-(3-((2-(5-Bromo-2,3-dimethoxybenzamido)ethyl)(ethyl)amino)propyl)imidazo[1,2-a]pyridine-2-carboxamide]	148	2330	–	6520	5560	–	0.46	–	< 50	–	–	–	< 50	–	–	< 50	< 50	< 50	< 50
